Measured values: the supplement of paper PMC10307832

How the values were obtained:
Assay in all cases: relative viability (nuclei count vs DMSO), 5 days (fraction); higher = more cells survive
A-427 = tested on: A-427
Procedure, shortened: (§1)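 Lung cancer cell lines in 1536-well plates were dosed by pin tool the day after seeding, either with one drug alone or with a fixed anchor-drug dose plus five library-drug doses (not always all listed) in √10 steps. After 5 days, cells were fixed and their nuclei stained in one step (final 0.05% Triton X-100, 1% formaldehyde, 1 ug/ml Hoechst), then counted on 4× images. Relative viability is the nuclei count in treated wells divided by that in vehicle wells. Values are medians of duplicate plates.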

BEN = tested on: BEN
Procedure, shortened: as §1

ChaGo-K-1 = tested on: ChaGo-K-1
Procedure, shortened: as §1

EKVX = tested on: EKVX
Procedure, shortened: as §1

LK-2 = tested on: LK-2
Procedure, shortened: as §1

NCI-H1563 = tested on: NCI-H1563
Procedure, shortened: as §1

NCI-H1650 = tested on: NCI-H1650
Procedure, shortened: as §1

NCI-H1755 = tested on: NCI-H1755
Procedure, shortened: as §1

NCI-H2085 = tested on: NCI-H2085
Procedure, shortened: as §1

NCI-H2228 = tested on: NCI-H2228
Procedure, shortened: as §1

NCI-H2347 = tested on: NCI-H2347
Procedure, shortened: as §1

NCI-H3122 = tested on: NCI-H3122
Procedure, shortened: as §1

NCI-H322M = tested on: NCI-H322M
Procedure, shortened: as §1

NCI-H358 = tested on: NCI-H358
Procedure, shortened: as §1

NCI-H460 = tested on: NCI-H460
Procedure, shortened: as §1

NCI-H520 = tested on: NCI-H520
Procedure, shortened: as §1

NCI-H596 = tested on: NCI-H596
Procedure, shortened: as §1

NCI-H650 = tested on: NCI-H650
Procedure, shortened: as §1

NCI-H727 = tested on: NCI-H727
Procedure, shortened: as §1

NCI-H838 = tested on: NCI-H838
Procedure, shortened: as §1

SW 1573 = tested on: SW 1573
Procedure, shortened: as §1

SW 900 = tested on: SW 900
Procedure, shortened: as §1

`COCC1(CO)C(=O)C2CCN1CC2` (centres undefined) [PRIMA-1MET] + CCNC(=O)c1noc(-c2cc(C(C)C)c(O)cc2O)c1-c1ccc(CN2CCOCC2)cc1 [Luminespib] (partner 0.01 µM) was tested, and the relative viability (A-427; first compound 0.2 µM) was 1.19, the relative viability (A-427; first compound 0.6325 µM) was 0.717 and the relative viability (A-427; first compound 2 µM) was 0.714. It also gave a relative viability (A-427; first compound 6.325 µM) of 0.763, a relative viability (A-427; first compound 20 µM) of 0.58 and a relative viability (BEN; first compound 0.2 µM) of 0.35. It also gave a relative viability (BEN; first compound 0.6325 µM) of 0.276, a relative viability (BEN; first compound 6.325 µM) of 0.24 and a relative viability (BEN; first compound 20 µM) of 0.18. The relative viability (ChaGo-K-1; first compound 0.2 µM) was 0.694, the relative viability (ChaGo-K-1; first compound 0.6325 µM) was 0.531 and the relative viability (ChaGo-K-1; first compound 2 µM) was 0.57. For the same molecule, the relative viability (ChaGo-K-1; first compound 6.325 µM) was 0.592, the relative viability (ChaGo-K-1; first compound 20 µM) was 0.346 and the relative viability (EKVX; first compound 0.2 µM) was 1.03. It also gave a relative viability (EKVX; first compound 0.6325 µM) of 0.808, a relative viability (EKVX; first compound 6.325 µM) of 0.805 and a relative viability (EKVX; first compound 20 µM) of 0.729. It also gave a relative viability (LK-2; first compound 0.2 µM) of 0.152, a relative viability (LK-2; first compound 0.6325 µM) of 0.188 and a relative viability (LK-2; first compound 2 µM) of 0.158. The relative viability (LK-2; first compound 6.325 µM) was 0.167, the relative viability (LK-2; first compound 20 µM) was 0.121 and the relative viability (NCI-H1563; first compound 0.2 µM) was 0.595. The relative viability (NCI-H1563; first compound 0.6325 µM) was 0.539, the relative viability (NCI-H1563; first compound 6.325 µM) was 0.529 and the relative viability (NCI-H1563; first compound 20 µM) was 0.147. It also gave a relative viability (NCI-H1650; first compound 0.2 µM) of 0.228, a relative viability (NCI-H1650; first compound 0.6325 µM) of 0.212 and a relative viability (NCI-H1650; first compound 2 µM) of 0.185. The relative viability (NCI-H1650; first compound 6.325 µM) was 0.193, the relative viability (NCI-H1650; first compound 20 µM) was 0.123 and the relative viability (NCI-H1755; first compound 0.2 µM) was 0.527. For the same molecule, the relative viability (NCI-H1755; first compound 0.6325 µM) was 0.332, the relative viability (NCI-H1755; first compound 2 µM) was 0.404 and the relative viability (NCI-H1755; first compound 6.325 µM) was 0.51. For the same molecule, the relative viability (NCI-H1755; first compound 20 µM) was 0.454, the relative viability (NCI-H2085; first compound 0.2 µM) was 0.55 and the relative viability (NCI-H2085; first compound 0.6325 µM) was 0.44. The relative viability (NCI-H2085; first compound 2 µM) was 0.3, the relative viability (NCI-H2085; first compound 6.325 µM) was 0.42 and the relative viability (NCI-H2085; first compound 20 µM) was 0.267. For the same molecule, the relative viability (NCI-H2228; first compound 0.2 µM) was 0.212, the relative viability (NCI-H2228; first compound 0.6325 µM) was 0.139 and the relative viability (NCI-H2228; first compound 2 µM) was 0.0997. It also gave a relative viability (NCI-H2228; first compound 6.325 µM) of 0.192, a relative viability (NCI-H2228; first compound 20 µM) of 0.056 and a relative viability (NCI-H2347; first compound 0.2 µM) of 0.262. It also gave a relative viability (NCI-H2347; first compound 0.6325 µM) of 0.403, a relative viability (NCI-H2347; first compound 2 µM) of 0.174 and a relative viability (NCI-H2347; first compound 6.325 µM) of 0.386. The relative viability (NCI-H2347; first compound 20 µM) was 0.349, the relative viability (NCI-H3122; first compound 0.2 µM) was 0.0725 and the relative viability (NCI-H3122; first compound 0.6325 µM) was 0.0963. It also gave a relative viability (NCI-H3122; first compound 2 µM) of 0.0983, a relative viability (NCI-H3122; first compound 6.325 µM) of 0.0835 and a relative viability (NCI-H3122; first compound 20 µM) of 0.0732. It also gave a relative viability (NCI-H322M; first compound 0.2 µM) of 0.974, a relative viability (NCI-H322M; first compound 0.6325 µM) of 0.809 and a relative viability (NCI-H322M; first compound 6.325 µM) of 0.958. For the same molecule, the relative viability (NCI-H322M; first compound 20 µM) was 0.556, the relative viability (NCI-H358; first compound 0.2 µM) was 0.314 and the relative viability (NCI-H358; first compound 0.6325 µM) was 0.312. It also gave a relative viability (NCI-H358; first compound 2 µM) of 0.354, a relative viability (NCI-H358; first compound 6.325 µM) of 0.416 and a relative viability (NCI-H358; first compound 20 µM) of 0.287. The relative viability (NCI-H460; first compound 0.2 µM) was 0.0337, the relative viability (NCI-H460; first compound 0.6325 µM) was 0.0272 and the relative viability (NCI-H460; first compound 2 µM) was 0.0258. For the same molecule, the relative viability (NCI-H460; first compound 6.325 µM) was 0.0312, the relative viability (NCI-H460; first compound 20 µM) was 0.0174 and the relative viability (NCI-H520; first compound 0.2 µM) was 0.214. It also gave a relative viability (NCI-H520; first compound 0.6325 µM) of 0.215, a relative viability (NCI-H520; first compound 2 µM) of 0.186 and a relative viability (NCI-H520; first compound 6.325 µM) of 0.2. It also gave a relative viability (NCI-H520; first compound 20 µM) of 0.203, a relative viability (NCI-H596; first compound 0.2 µM) of 0.921 and a relative viability (NCI-H596; first compound 0.6325 µM) of 0.809. It also gave a relative viability (NCI-H596; first compound 2 µM) of 0.858, a relative viability (NCI-H596; first compound 6.325 µM) of 0.936 and a relative viability (NCI-H596; first compound 20 µM) of 0.109. It also gave a relative viability (NCI-H650; first compound 0.2 µM) of 1.19, a relative viability (NCI-H650; first compound 2 µM) of 0.666 and a relative viability (NCI-H650; first compound 6.325 µM) of 0.746. The relative viability (NCI-H650; first compound 20 µM) was 0.373, the relative viability (NCI-H727; first compound 0.2 µM) was 0.615 and the relative viability (NCI-H727; first compound 0.6325 µM) was 0.328. For the same molecule, the relative viability (NCI-H727; first compound 2 µM) was 0.236, the relative viability (NCI-H727; first compound 6.325 µM) was 0.426 and the relative viability (NCI-H727; first compound 20 µM) was 0.213. The relative viability (NCI-H838; first compound 0.2 µM) was 0.315, the relative viability (NCI-H838; first compound 0.6325 µM) was 0.194 and the relative viability (NCI-H838; first compound 2 µM) was 0.298. For the same molecule, the relative viability (NCI-H838; first compound 6.325 µM) was 0.284, the relative viability (NCI-H838; first compound 20 µM) was 0.189 and the relative viability (SW 1573; first compound 0.2 µM) was 0.233. It also gave a relative viability (SW 1573; first compound 2 µM) of 0.214, a relative viability (SW 1573; first compound 6.325 µM) of 0.0379 and a relative viability (SW 1573; first compound 20 µM) of 0.0227. For the same molecule, the relative viability (SW 900; first compound 0.2 µM) was 0.171, the relative viability (SW 900; first compound 0.6325 µM) was 0.176 and the relative viability (SW 900; first compound 2 µM) was 0.162. The relative viability (SW 900; first compound 6.325 µM) was 0.136 and the relative viability (SW 900; first compound 20 µM) was 0.091.
